In brackets after ≈: the same amount, converted by molar mass.
Key:
Format in all cases: functional
Staphylococcus aureus [1] = experiment: Antibacterial activity against macrolides, lincosamides, streptogramin B and methicillin-resistant Staphylococcus aureus 1609-09 harboring cfr gene assessed as growth inhibition
Staphylococcus aureus [2] = experiment: Antibacterial activity against methicillin-resistant Staphylococcus aureus 1279-07 harboring cfr gene assessed as growth inhibition
Staphylococcus aureus [3] = experiment: Antibacterial activity against methicillin-resistant Staphylococcus aureus 1281-07 harboring cfr gene assessed as growth inhibition
Staphylococcus aureus [4] = experiment: Antibacterial activity against methicillin-resistant Staphylococcus aureus 2111-10-USA300 harboring cfr gene assessed as growth inhibition
Staphylococcus aureus [5] = experiment: Antibacterial activity against methicillin-resistant Staphylococcus aureus 1279-07-USA300 assessed as growth inhibition
[6] = system: Staphylococcus epidermidis; experiment: Antibacterial activity against macrolides, lincosamides, streptogramin B and methicillin-resistant Staphylococcus epidermidis 1105-00 assessed as growth inhibition
Streptococcus pyogenes = experiment: Antibacterial activity against macrolides, lincosamides, and streptogramin B-resistant Streptococcus pyogenes 1304-00 assessed as growth inhibition
Streptococcus pneumoniae = experiment: Antibacterial activity against macrolides, lincosamides, and streptogramin B-resistant Streptococcus pneumoniae 1243-00 assessed as growth inhibition
Staphylococcus aureus [7] = experiment: Antibacterial activity against Staphylococcus aureus ATCC 29213 assessed as growth inhibition
Staphylococcus aureus [8] = experiment: Antibacterial activity against macrolides, lincosamides, streptogramin B and methicillin-resistant Staphylococcus aureus 1015-00 assessed as growth inhibition

SMILES	MIC (Staphylococcus aureus [1])	MIC (Staphylococcus aureus [2])	MIC (Staphylococcus aureus [3])	MIC (Staphylococcus aureus [4])	MIC (Staphylococcus aureus [5])	MIC [6]	MIC (Streptococcus pyogenes)	MIC (Streptococcus pneumoniae)	MIC (Staphylococcus aureus [7])	MIC (Staphylococcus aureus [8])
CC[C@H]1OC(=O)[C@H](C)[C@@H](OC(=O)N2CC(C)(C)C[C@@H]2c2ccc(Cl)c(Cl)c2)[C@H](C)[C@@H](O[C@@H]2O[C@H](C)C[C@H](N(C)C)[C@H]2O)[C@](C)(OC)C[C@@H](C)C(=O)[C@H](C)[C@H]2NC(=O)O[C@@]21C	64 µg/mL (≈ 72.3 µM)	0.25 µg/mL (≈ 0.283 µM)	0.25 µg/mL (≈ 0.283 µM)	0.25 µg/mL (≈ 0.283 µM)	2 µg/mL (≈ 2.26 µM)	64 µg/mL (≈ 72.3 µM)	0.125 µg/mL (≈ 0.141 µM)	0.125 µg/mL (≈ 0.141 µM)	0.25 µg/mL (≈ 0.283 µM)	64 µg/mL (≈ 72.3 µM)
CC[C@H]1OC(=O)[C@H](C)[C@@H](OC(=O)N2CC(C)(C)C[C@@H]2c2cccc(Cl)c2)[C@H](C)[C@@H](O[C@@H]2O[C@H](C)C[C@H](N(C)C)[C@H]2O)[C@](C)(OC)C[C@@H](C)C(=O)[C@H](C)[C@H]2NC(=O)O[C@@]21C	> 64 µg/mL	0.25 µg/mL (≈ 0.294 µM)	0.125 µg/mL (≈ 0.147 µM)	0.25 µg/mL (≈ 0.294 µM)	0.25 µg/mL (≈ 0.294 µM)	64 µg/mL (≈ 75.3 µM)	0.03 µg/mL (≈ 0.0353 µM)	0.03 µg/mL (≈ 0.0353 µM)	0.25 µg/mL (≈ 0.294 µM)	> 64 µg/mL
CC[C@H]1OC(=O)[C@H](C)[C@@H](OC(=O)N2CCC[C@@H]2c2ccccc2)[C@H](C)[C@@H](O[C@@H]2O[C@H](C)C[C@H](N(C)C)[C@H]2O)[C@](C)(OC)C[C@@H](C)C(=O)[C@H](C)[C@H]2NC(=O)O[C@@]21C	> 64 µg/mL	> 64 µg/mL	0.25 µg/mL (≈ 0.317 µM)	> 64 µg/mL	> 64 µg/mL	> 64 µg/mL	> 64 µg/mL	> 64 µg/mL	0.5 µg/mL (≈ 0.635 µM)	> 64 µg/mL
CC[C@H]1OC(=O)[C@H](C)[C@@H](OC(=O)N2CC(C)(C)C[C@@H]2c2ccc(Cl)cc2)[C@H](C)[C@@H](O[C@@H]2O[C@H](C)C[C@H](N(C)C)[C@H]2O)[C@](C)(OC)C[C@@H](C)C(=O)[C@H](C)[C@H]2NC(=O)O[C@@]21C	> 64 µg/mL	0.25 µg/mL (≈ 0.294 µM)	0.25 µg/mL (≈ 0.294 µM)	0.25 µg/mL (≈ 0.294 µM)	0.5 µg/mL (≈ 0.588 µM)	64 µg/mL (≈ 75.3 µM)	0.125 µg/mL (≈ 0.147 µM)	0.125 µg/mL (≈ 0.147 µM)	0.25 µg/mL (≈ 0.294 µM)	> 64 µg/mL
CC[C@H]1OC(=O)[C@H](C)[C@@H](OC(=O)N2CC(C)(C)C[C@@H]2c2cccc3c2OCO3)[C@H](C)[C@@H](O[C@@H]2O[C@H](C)C[C@H](N(C)C)[C@H]2O)[C@](C)(OC)C[C@@H](C)C(=O)[C@H](C)[C@H]2NC(=O)O[C@@]21C	> 64 µg/mL	0.125 µg/mL (≈ 0.145 µM)	0.125 µg/mL (≈ 0.145 µM)	0.125 µg/mL (≈ 0.145 µM)	0.5 µg/mL (≈ 0.581 µM)	16 µg/mL (≈ 18.6 µM)	0.03 µg/mL (≈ 0.0349 µM)	0.03 µg/mL (≈ 0.0349 µM)	0.125 µg/mL (≈ 0.145 µM)	64 µg/mL (≈ 74.4 µM)
CC[C@H]1OC(=O)[C@H](C)[C@@H](O[C@H]2C[C@@](C)(OC)[C@@H](O)[C@H](C)O2)[C@H](C)[C@@H](O[C@@H]2O[C@H](C)C[C@H](N(C)C)[C@H]2O)[C@](C)(OC)C[C@@H](C)C(=O)[C@H](C)[C@@H](O)[C@]1(C)O [CLARITHROMYCIN]	16 µg/mL (≈ 21.4 µM)	0.5 µg/mL (≈ 0.668 µM)	0.25 µg/mL (≈ 0.334 µM)	0.5 µg/mL (≈ 0.668 µM)	1 µg/mL (≈ 1.34 µM)	8 µg/mL (≈ 10.7 µM)	0.25 µg/mL (≈ 0.334 µM)	0.125 µg/mL (≈ 0.167 µM)	0.5 µg/mL (≈ 0.668 µM)	16 µg/mL (≈ 21.4 µM)
CC[C@H]1OC(=O)[C@H](C)[C@@H](OC(=O)N2CC(C)(C)C[C@@H]2c2ccccc2Cl)[C@H](C)[C@@H](O[C@@H]2O[C@H](C)C[C@H](N(C)C)[C@H]2O)[C@](C)(OC)C[C@@H](C)C(=O)[C@H](C)[C@H]2NC(=O)O[C@@]21C	64 µg/mL (≈ 75.3 µM)	0.25 µg/mL (≈ 0.294 µM)	0.25 µg/mL (≈ 0.294 µM)	0.25 µg/mL (≈ 0.294 µM)	2 µg/mL (≈ 2.35 µM)	64 µg/mL (≈ 75.3 µM)	0.25 µg/mL (≈ 0.294 µM)	0.25 µg/mL (≈ 0.294 µM)	0.25 µg/mL (≈ 0.294 µM)	64 µg/mL (≈ 75.3 µM)
CC[C@H]1OC(=O)[C@H](C)[C@@H](OC(=O)N2CCCC2)[C@H](C)[C@@H](O[C@@H]2O[C@H](C)C[C@H](N(C)C)[C@H]2O)[C@](C)(OC)C[C@@H](C)C(=O)[C@H](C)[C@H]2NC(=O)O[C@@]21C	16 µg/mL (≈ 22.5 µM)	16 µg/mL (≈ 22.5 µM)	32 µg/mL (≈ 45 µM)	16 µg/mL (≈ 22.5 µM)	2 µg/mL (≈ 2.81 µM)	1 µg/mL (≈ 1.4 µM)	0.5 µg/mL (≈ 0.702 µM)	0.5 µg/mL (≈ 0.702 µM)	4 µg/mL (≈ 5.62 µM)	4 µg/mL (≈ 5.62 µM)

Source: ChEMBL document CHEMBL2331530, “Novel 3-O-carbamoyl erythromycin A derivatives (carbamolides) with activity against resistant staphylococcal and streptococcal isolates” (2013)
